Earlier results in patent publication US20050147632A1, “Virally infected plants as a source of insect reppellants/attractents” (priority 2002, published 2005).

Test system: neighboring plants
Settings: Shulaev et al., Nature 385: 718-721, 1997

In the case of `COC(=O)c1ccccc1O` [methyl salicylate], the “induction of plant pathogen resistance” value is listed as “capable of inducing plant pathogen resistance in neighboring plants”.
